Reference: patent publication US20030129751A1, “Tissue-engineered organs” (priority 2001, published 2003)

Tested on: neointestine
Test: GLP-2 treatment of rats bearing tissue-engineered small intestine: morphometry and SGLT1 expression
Format: in vivo, rat
Description: Neointestinal cysts were engineered by seeding biodegradable polymers with neonatal rat intestinal organoid units. The implantation was also performed with small intestine organoid units that had been labeled with GFP to distinguish and verify engineered tissue from host tissue (FIG. 36). Confirmation of GFP production was obtained by simultaneous in vitro culture of the organoid units. The cysts were matured and anastomosed to the native jejunum of syngenic adult recipients. Histology and surface area calculations were performed, as well as Northern blot and localization analysis of the Na+/glucose cotransporter (SGLT1). GLP-2 treatment augmented the absorptive surface area of engineered intestine […]. Animals were treated with [[…]]GLP-2 (twice daily, 1 μg/g body weight), a long-acting analogue of GLP-2, or vehicle alone (control) for 10 days. Rats were then sacrificed and tissues harvested for analysis. Histological parameters and surface area determinations were done using computer-based morphometry.

[1] = [Gly2]GLP-2 twice daily 1 μg/g body weight, 10 days, mean±S.D.
[2] = [Gly2]GLP-2 twice daily 1 μg/g body weight, 10 days, mean±S.D., p < 0.05

“[Gly2]GLP-2 (HGDGSFSDEMNTILDNLAARDFINWLIQTKITD; Glucagon-like peptide 2; UniProt P01275 146-178, looked up, variant A2G) [a long-acting analogue of GLP-2]” was tested, and the “SGLT1 mRNA expression in the neointestine” value (Northern blot, vs vehicle control) was “two-fold increase”, the “Crypt Width” value [1] was 63 ± 6 microns and the “Villus Width” value [1] was 114 ± 32 microns. The “Surface Area (mucosal amplification ratio)” value [2] was 7.3 ± 1.4, the “Villus Height” value [2] was 456 ± 23 microns and the SGLT1 expression topography (localization analysis) was “unperturbed”. For the same substance, the “Expansion of absorptive surface area” value (vs vehicle control, 10 days) was 40%.
